The results in this text go back to patent US8722687B2, “Imidazo [1,2-A]pyridine derivatives as FGFR kinase inhibitors for use in therapy” (Astex Therapeutics Ltd, priority 2009, dated 2014).

Assay [1] relates to human prostate cancer PC3 cells. As to the kind of experiment: EB1 cellular assay (Eb1 Comet assay, microtubule disruption). The assay is classed as cell-based. The conditions noted are these: PC-3, lowest active concentration: Eb1 foci absent in at least 50% of treated PC3 cells, 1 hour, read-out: Eb1 LAC. How it is done: The Eb1 Comet assay relies on the detection of the Eb1 protein at the plus end of polymerizing microtubules (Mimori-Kiyosue, 2000) using indirect immunofluorescence. Disruption of microtubule dynamics through de-polymerization or stabilization results in a de-localization of Eb1 from the growing microtubule ends and this is visualized by the disappearance of Eb1 containing cytoplasmic foci.
Briefly, human prostate cancer PC3 cells obtained from the American Type Culture Collection were grown in 96-well plates (Greiner, cat. no. 655090) in HAM's F12 medium as recommended by the provider (ATCC). The cells were treated for 1 hour at 37° C. with compounds dissolved in DMSO (0.6% final DMSO concentration). The culture medium was then removed by aspiration and the cells were fixed by adding cold methanol (−20° C.). After a 15 minutes incubation at −20° C., the cells were washed twice with DPBS (Gibco) containing 0.5% Triton X-100. Mouse Eb1 antibody (BD Transduction Laboratories, cat. no. 610534) was added to the cells (1/250 dilution in DPBS containing 1% BSA) and incubated overnight at room temperature. The antibody was subsequently removed and the cells washed twice with DPBS, 0.5% Triton X-100. Secondary goat anti-mouse antibody conjugated to Alexa 488 fluorescent dye (Molecular Probes) was added at a 1/500 dilution in DPBS, 1% BSA and incubated for 1 hour at 37° C. The cells were washed twice with DPBS, 0.5% Triton X-100 and then DPBS containing 0.5% Triton X-100 and 1/5000 Hoechst 33342 (Molecular Probes) was added. Microscopy based Eb1 foci visualization was carried out using an IN Cell Analyser 1000 (Amersham Biosciences) using a 20× objective. Compound dependent microtubule disruption was visually determined by the disappearance in Eb1 foci. The lowest active concentration (LAC) was determined as the concentration where Eb1 foci were absent in at least 50% of the treated cells. Herein the effects of test compounds are expressed as pLAC (the negative log value of the LAC-value)

Assay [2] addresses T1, VEGFR2 (Homo sapiens, UniProt P35968).
T1 construct: purchased Upstate
Nature of the assay: VEGFR2 in vitro kinase inhibitory activity assay. The assay is classed as biochemical. The conditions noted are these: read-out: VEGFR2 IC50(μM) or % I. Here is the method:
(§1) FGFR3, VEGFR2 and PDGFR in vitro Kinase Inhibitory Activity Assays
(§2) Enzymes (from Upstate), prepared at 2× final concentration, were incubated with test compounds, biotinylated Flt3 substrate (biotin-VASSDNEYFYVDF) (Cell Signalling Technology Inc.) and ATP in the appropriate assay buffer (Table 1). The reaction was allowed to proceed for 3 hours (FGFR3), 1 hour (VEGFR2, PDGFR-beta) at room temperature on a plate shaker at 700 rpm before being stopped with 35 mM EDTA, pH 8 (FGFR3, VEGFR2) or 55 mM EDTA, pH 8 (PDGFR-beta). 5× detection mix/50 mM HEPES pH 7.5, 0.1% BSA, 11.34 nM Eu-anti-pY (PY20) (PerkinElmer) 74 nM SA-XL665 (Cisbio) for FGFR3, 50 mM HEPES, pH 7.5, 0.1% BSA, 11.34 nM Eu-anti-pY (PY20), 187.5 nM SA-XL665 for VEGFR2 and 50 mM HEPES, pH 7.5, 0.1% BSA, 11.34 nM Eu-anti-pY (PT66) (PerkinElmer), 375 nM SA-XL665 (Cisbio) for PDGFR-beta) was then added to each well and the plate sealed and incubated at room temperature for one hour on a plate shaker at 700 rpm. The plate was then read on a Packard Fusion plate reader or a BMG Pherastar both in TRF mode.
Kinase Assay buffers were:
B: 50 mM HEPES pH 7.5, 6 mM MnCl2, 1 mM DTT, 0.01% TritonX-100, 0.1 mM Sodium orthovanadate

Assay [3] relates to Ba/F3-Flt3 cells. Nature of the assay: Ba/F3-Flt3 assay (Alamar Blue). The assay is classed as cell-based, murine. To be noted: Mus musculus, 24 h; with 10 ng/ml murine IL3; read-out: Ba/F3-flt3 + IL3 pIC50 (converted). The source says: (§3) Ba/F3, a murine interleukin-3 dependent pro-B cell line is increasingly popular as a model system for assessing both the potency and downstream signaling of kinase oncogenes, and the ability of small-molecule kinase inhibitors to block kinase activity. Facilitated by their growth properties. Ba/F3 cells have recently been adapted to high throughput assay formats for compound profiling. Further, several published approaches show promise in predicting resistance to small-molecule kinase inhibitors elicited by point mutations interfering with inhibitor binding (Ba/F3 cells and their use in kinase drug discovery; Markus Warmuth, Sungjoon Kim, Xiang-ju Gu, Gang Xia and Francisco Adria'n; Curr Opin Oncol 19:55-60).
(§4) Ba/F3-Flt3 cells (cultured in phenol red free RPMI-1640, 10% A FCS and 50 μg/ml Gentamycin at 37° C. and 5% 002) were plated at a density of 10000 cells in a total volume of 180 μl medium in a black TC-treated sterile 96-well plate (Corning). After 24 hours, drugs in different dilutions were added to a final volume of 200 μl and at a final DMSO concentration of 0.2% prior to incubation at 37° C., and 5% CO2.
(§5) After 24 h, to each well 40 μl Alamar Blue solution (Aldrich) was added and the cells were further incubated for 4 hours at 37° C. Fluorescence (ex. 544, em. 590 nm) was measured using a fluorescence reader (Labsystems) and IC50's were calculated.
(§6) In the condition containing IL3, 10 ng/ml of murine IL3 (PeproTech) was added during compound incubation.
Background: Alamar Blue is a resazurin reagent that responds to reducing activity.

The target of assay [4] is T2, Ba/F3-Flt3 cells (Homo sapiens, UniProt P36888, cells depend on it, form not given).
T2 construct: Ba/F3-flt3 − IL3 pIC50; other: without IL3
T2 sequence (P36888 1-993): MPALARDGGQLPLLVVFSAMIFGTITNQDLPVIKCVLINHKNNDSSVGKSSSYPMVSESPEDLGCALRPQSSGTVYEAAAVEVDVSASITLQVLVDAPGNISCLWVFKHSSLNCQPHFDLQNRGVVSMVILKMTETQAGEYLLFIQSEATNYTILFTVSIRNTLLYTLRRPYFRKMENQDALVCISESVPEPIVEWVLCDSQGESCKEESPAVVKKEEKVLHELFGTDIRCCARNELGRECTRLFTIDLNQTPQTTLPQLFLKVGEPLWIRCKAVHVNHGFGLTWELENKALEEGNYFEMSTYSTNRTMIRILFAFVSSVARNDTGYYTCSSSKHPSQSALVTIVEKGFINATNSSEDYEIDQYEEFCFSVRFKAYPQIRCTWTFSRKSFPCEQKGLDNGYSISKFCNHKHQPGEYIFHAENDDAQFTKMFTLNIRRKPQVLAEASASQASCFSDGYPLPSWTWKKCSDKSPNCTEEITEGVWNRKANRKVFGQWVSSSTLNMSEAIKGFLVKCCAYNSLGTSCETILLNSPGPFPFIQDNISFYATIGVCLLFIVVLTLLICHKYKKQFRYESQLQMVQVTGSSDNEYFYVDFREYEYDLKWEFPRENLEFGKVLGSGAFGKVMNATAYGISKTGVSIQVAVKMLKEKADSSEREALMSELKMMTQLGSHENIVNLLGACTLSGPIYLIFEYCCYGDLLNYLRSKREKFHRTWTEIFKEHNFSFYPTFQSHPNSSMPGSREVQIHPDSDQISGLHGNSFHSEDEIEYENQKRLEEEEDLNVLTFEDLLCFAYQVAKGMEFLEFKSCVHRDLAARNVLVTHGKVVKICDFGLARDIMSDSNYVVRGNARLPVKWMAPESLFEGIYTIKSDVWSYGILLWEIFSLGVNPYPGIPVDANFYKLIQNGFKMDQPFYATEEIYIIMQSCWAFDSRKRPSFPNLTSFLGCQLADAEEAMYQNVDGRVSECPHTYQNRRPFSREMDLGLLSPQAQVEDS
Nature of the assay: Ba/F3-Flt3 assay (Alamar Blue). It counts as cell-based, murine. To be noted: without IL3.
Source text: as §3, §4, §5, §6

Assay [5] addresses T3, FGFR3 (Homo sapiens, UniProt P22607).
T3 construct: purchased Upstate
As to the kind of experiment: FGFR3 in vitro kinase inhibitory activity assay. To be noted: read-out: FGFR3 IC50(μM) or % I. The assay is classed as biochemical. Here is the method:
as §1, §2

Assay [6] addresses T4, Ba/F3-TEL-FGFR3 cells (Homo sapiens, UniProt P22607).
T4 construct: fused on or other part: TEL (ETV6) N-terminal oligomerising part fused to the FGFR3 kinase part; P41212 (Transcription factor ETV6)
As to the kind of experiment: Ba/F3-TEL-FGFR3 cell proliferation assay (Alamar Blue). It counts as cell-based, murine. To be noted: 72 hours; read-out: BaF3-TEL-FGFR3 prolif. Here is the method: (§7) Ba/F3-TEL-FGFR3 & Ba/F3 (WT) Cell Proliferation Assays
(§8) Stably transfected Ba/F3-TEL-FGFR3 cells were plated out into black 96-well tissue culture plates with clear bottoms in RPMI medium containing 10% FBS and 0.25 mg/ml G418 at a density of 5×10^3 cells/well (200 μl per well). The parental wild-type Ba/F3 cells (DSMZ no.: ACC 300) were plated out into black 96-well tissue culture plates with clear bottoms in RPMI medium containing 10% FBS and 2 ng/ml mouse IL-3 (R&D Systems) at a density of 2.5×10^3 cells/well (200 μl per well). Plates were placed in an incubator overnight before adding the compounds the following day. Dilutions of compounds were made in DMSO starting at 10 mM and were diluted into the wells to give a final DMSO concentration of 0.1% in assay. Compounds were left on the cells for 72 hours before the plates were removed from the incubator and 20 μl of Alamar Blue™ (Biosource) was added to each well. Plates were placed in the incubator for 4-6 hours before reading plates at 535 nm (excitation)/590 nm (emission) on a Fusion plate reader (Packard). Where inhibition is high an IC50 can be determined.

The subject of assay [7] is parental wild-type Ba/F3 cells. Nature of the assay: Ba/F3 (WT) cell proliferation assay (Alamar Blue). It counts as cell-based, murine. The conditions noted are these: read-out: BaF3 WT prolif. How it is done:
as §7, §8

Where only a bound is given, the exact number is not on record here.

T1 sequence (P35968 20-1356): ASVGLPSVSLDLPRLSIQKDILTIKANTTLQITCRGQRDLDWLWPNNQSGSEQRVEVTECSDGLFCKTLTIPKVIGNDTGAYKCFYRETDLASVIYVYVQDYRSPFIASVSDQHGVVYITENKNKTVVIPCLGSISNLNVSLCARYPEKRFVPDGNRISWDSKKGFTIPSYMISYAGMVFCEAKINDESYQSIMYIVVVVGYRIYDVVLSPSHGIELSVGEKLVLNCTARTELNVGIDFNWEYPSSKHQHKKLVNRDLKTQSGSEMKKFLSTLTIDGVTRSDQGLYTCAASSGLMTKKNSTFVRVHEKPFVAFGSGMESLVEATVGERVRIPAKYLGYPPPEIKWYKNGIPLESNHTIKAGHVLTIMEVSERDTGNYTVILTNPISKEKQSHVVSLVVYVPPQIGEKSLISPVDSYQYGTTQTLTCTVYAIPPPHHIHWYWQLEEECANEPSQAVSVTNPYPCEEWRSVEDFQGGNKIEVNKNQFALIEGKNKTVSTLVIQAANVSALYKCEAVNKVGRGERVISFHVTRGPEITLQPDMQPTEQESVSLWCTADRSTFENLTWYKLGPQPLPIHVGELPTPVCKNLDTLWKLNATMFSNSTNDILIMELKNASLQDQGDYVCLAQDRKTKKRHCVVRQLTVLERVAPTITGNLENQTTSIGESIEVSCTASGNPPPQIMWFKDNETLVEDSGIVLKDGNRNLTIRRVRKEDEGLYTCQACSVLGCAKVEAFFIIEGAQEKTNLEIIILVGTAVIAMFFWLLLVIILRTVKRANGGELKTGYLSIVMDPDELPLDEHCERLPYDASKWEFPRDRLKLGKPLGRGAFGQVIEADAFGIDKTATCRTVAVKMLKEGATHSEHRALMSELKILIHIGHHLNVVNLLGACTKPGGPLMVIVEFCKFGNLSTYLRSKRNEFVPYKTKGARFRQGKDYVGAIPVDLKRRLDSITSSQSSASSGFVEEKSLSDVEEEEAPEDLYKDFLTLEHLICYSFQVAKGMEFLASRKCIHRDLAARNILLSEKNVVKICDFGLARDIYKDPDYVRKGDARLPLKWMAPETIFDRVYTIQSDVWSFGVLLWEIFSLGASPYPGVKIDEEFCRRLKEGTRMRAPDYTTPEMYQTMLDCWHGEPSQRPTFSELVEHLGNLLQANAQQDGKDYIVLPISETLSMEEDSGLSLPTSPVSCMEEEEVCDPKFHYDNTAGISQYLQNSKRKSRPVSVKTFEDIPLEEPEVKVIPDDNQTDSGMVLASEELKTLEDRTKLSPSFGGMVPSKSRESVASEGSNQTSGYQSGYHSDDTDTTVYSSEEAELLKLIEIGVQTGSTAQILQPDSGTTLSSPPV
T3 sequence (P22607 23-806): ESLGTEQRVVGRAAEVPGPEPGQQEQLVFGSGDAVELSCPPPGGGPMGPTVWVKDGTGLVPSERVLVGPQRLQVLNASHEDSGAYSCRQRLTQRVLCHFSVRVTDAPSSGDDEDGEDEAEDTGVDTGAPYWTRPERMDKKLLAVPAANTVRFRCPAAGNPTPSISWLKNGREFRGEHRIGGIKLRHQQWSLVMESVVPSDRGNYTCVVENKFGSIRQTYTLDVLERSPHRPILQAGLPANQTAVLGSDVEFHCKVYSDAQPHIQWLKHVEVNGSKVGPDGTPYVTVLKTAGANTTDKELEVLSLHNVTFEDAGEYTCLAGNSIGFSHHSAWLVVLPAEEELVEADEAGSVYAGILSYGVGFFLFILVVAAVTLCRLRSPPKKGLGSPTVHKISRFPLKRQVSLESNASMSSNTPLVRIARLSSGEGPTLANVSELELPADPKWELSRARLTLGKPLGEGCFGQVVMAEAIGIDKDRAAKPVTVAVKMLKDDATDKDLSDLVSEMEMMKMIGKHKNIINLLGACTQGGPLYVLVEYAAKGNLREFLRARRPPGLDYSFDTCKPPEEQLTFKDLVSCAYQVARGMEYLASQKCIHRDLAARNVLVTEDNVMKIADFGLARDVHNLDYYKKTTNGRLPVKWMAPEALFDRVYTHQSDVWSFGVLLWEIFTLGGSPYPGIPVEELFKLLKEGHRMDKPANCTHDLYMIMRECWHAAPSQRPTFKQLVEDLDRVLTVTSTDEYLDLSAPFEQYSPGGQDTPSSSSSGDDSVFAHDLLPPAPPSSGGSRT
T4 sequence (P22607 whole entry, change not shown, the tested form may be a part): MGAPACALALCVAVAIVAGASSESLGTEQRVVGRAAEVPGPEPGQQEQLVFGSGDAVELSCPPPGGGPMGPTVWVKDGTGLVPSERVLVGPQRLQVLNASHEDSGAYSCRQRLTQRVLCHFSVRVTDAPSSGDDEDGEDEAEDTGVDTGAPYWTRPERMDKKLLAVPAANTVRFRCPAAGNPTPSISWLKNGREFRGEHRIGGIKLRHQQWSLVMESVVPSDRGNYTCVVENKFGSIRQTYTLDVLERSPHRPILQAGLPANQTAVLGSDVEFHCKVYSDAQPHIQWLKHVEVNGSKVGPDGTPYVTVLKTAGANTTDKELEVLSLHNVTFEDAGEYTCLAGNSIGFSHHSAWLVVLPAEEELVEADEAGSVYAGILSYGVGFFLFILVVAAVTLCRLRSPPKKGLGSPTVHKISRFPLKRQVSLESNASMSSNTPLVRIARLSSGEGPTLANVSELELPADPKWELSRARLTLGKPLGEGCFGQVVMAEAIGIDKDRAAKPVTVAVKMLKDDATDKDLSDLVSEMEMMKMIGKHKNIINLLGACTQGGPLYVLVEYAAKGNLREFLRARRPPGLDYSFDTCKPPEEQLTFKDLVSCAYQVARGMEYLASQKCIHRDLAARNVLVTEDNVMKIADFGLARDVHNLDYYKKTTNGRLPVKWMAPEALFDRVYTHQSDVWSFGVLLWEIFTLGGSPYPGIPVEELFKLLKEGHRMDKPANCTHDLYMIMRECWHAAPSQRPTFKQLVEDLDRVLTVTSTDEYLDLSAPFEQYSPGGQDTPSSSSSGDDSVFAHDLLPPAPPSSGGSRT

For `O=C(NCC(F)(F)F)Nc1cc(OC2CCC2)cc(-c2cnc3cc(-c4ccnc(C(F)(F)F)n4)ccn23)c1` [Compound F-12, 1-{3-Cyclobutoxy-5-[7-(2-trifluoromethyl-pyrimidin-4-yl)-imidazo[1,2-a]pyridin-3-yl]-phenyl}-3-(2,2,2-trifluoro-ethyl)-urea], the minimal effective concentration in assay [1] was over 10 µM. Further, the values for the IC50 in assay [2] and in assay [3] were 2.2 µM and over 10000 nM, respectively. Moreover, the “Ba/F3-flt3 − IL3 pIC50” value in assay [4] is under 5. In addition, the inhibition at 0.3 µM in assay [5] (3 h, % I at 0.3 μM) was 60%.

As to `CC(C)Oc1cc(NC(=O)NCC(F)(F)F)cc(-c2cnc3cc(-c4cc(N(C)C)ncn4)ccn23)c1` [Compound F-21, 1-{3-[7-(6-Dimethylamino-pyrimidin-4-yl)-imidazo[1,2-a]pyridin-3-yl]-5-isopropoxy-phenyl}-3-(2,2,2-trifluoro-ethyl)-urea], the IC50 in assay [2] is 0.79 µM; in assay [7] (BaF3, 72 hours, with mouse IL-3) it was 2300 nM; in assay [5] it was 0.012 µM. Moreover, the GI50 in assay [6] turned out to be 240 nM.

`CC(C)Oc1cc(NC(=O)NCC(F)(F)F)cc(-c2cnc3cc(-c4nnco4)ccn23)c1` [Compound F-22, 1-[3-Isopropoxy-5-(7-[1,3,4]oxadiazol-2-yl-imidazo[1,2-a]pyridin-3-yl)-phenyl]-3-(2,2,2-trifluoro-ethyl)-urea]: the figures for the IC50 in assay [2] and in assay [5] were 1.1 µM and 0.041 µM, respectively. Moreover, the GI50 in assay [6] came out at 1300 nM. Besides, in assay [7] (Mus musculus, BaF3, 72 h, % at 10.0 μM), the inhibition at 10 µM stood at 19%.

With `Cc1nnc(-c2ccn3c(-c4cc(CN(C)C)cc(NC(=O)NCC(F)(F)F)c4)cnc3c2)o1` [Compound F-24, 1-{3-Dimethylaminomethyl-5-[7-(5-methyl-[1,3,4]oxadiazol-2-yl)-imidazo[1,2-a]pyridin-3-yl]-phenyl}-3-(2,2,2-trifluoroethyl)-urea], in assay [1], the minimal effective concentration is over 10 µM. In addition, the IC50 was 2.8 µM in assay [2] and over 10000 nM in assay [3]. Also, in assay [4], the “Ba/F3-flt3 − IL3 pIC50” value is under 5.

With `CNCc1cc(NC(=O)NCC(F)(F)F)cc(-c2cnc3cc(-c4nnc(C)o4)ccn23)c1` [Compound F-25, 1-{3-Methylaminomethyl-5-[7-(5-methyl-[1,3,4]oxadiazol-2-yl)-imidazo[1,2-a]pyridin-3-yl]-phenyl}-3-(2,2,2-trifluoroethyl)-urea], in assay [1], the minimal effective concentration was over 10 µM. The IC50 is 1.7 µM in assay [2], over 10000 nM in assay [3] and 0.46 µM in assay [5]. In addition, the “Ba/F3-flt3 − IL3 pIC50” value in assay [4] is listed as under 5.

Regarding `Cc1nnc(-c2ccn3c(-c4cc(NC(=O)NCC(F)(F)F)cc(NC(C)C)c4)cnc3c2)o1` [Compound F-30], the minimal effective concentration in assay [1] amounted to 10 µM. In addition, the IC50 in assay [2] was 5.8 µM; in assay [3] it was over 10000 nM; in assay [5], 0.17 µM. The “Ba/F3-flt3 − IL3 pIC50” value in assay [4] is under 5.

Turning to `Cc1nnc(-c2ccn3c(-c4cc(NC(=O)NC(O)C(F)(F)F)cc(OC(C)C)c4)cnc3c2)o1` (stereo not shown) [Compound F-32, 1-{3-Isopropoxy-5-[7-(5-methyl-[1,3,4]oxadiazol-2-yl)-imidazo[1,2-a]pyridin-3-yl]-phenyl}-3-(2,2,2-trifluoro-1-hydroxyethyl)-urea], in assay [1], the minimal effective concentration was over 10 µM. Also, the IC50 in assay [2] is 1.2 µM; in assay [3], over 10000 nM. Also, in assay [4], the “Ba/F3-flt3 − IL3 pIC50” value is given as under 5.
